Source: US20110217324A1, “INHIBITORS OF ANTIGEN PRESENTATION BY MHC CLASS II MOLECULES AND METHODS OF USE THEREOF” (priority 2007, published 2011)
Numbered stars: 1 amine (or outer) side, 2 acyl side, 3 side chain; on linkers, the order of the positions; unused ones are H or OH. Square brackets hold non-standard residues; d marks the D form. Peptide text beside a SMILES is read from it. * marks the point of attachment. X2 = O=C([C@H](Cc1cccc2[nH]cnc12)N[*:1])[*:2]; X7 = O=C([C@H](Cc1cccc2[nH]ncc12)N[*:1])[*:2]; Gly(cPent) = N[C@H](C(=O)O)C1CCCC1; Tic = O=C(O)[C@@H]1Cc2ccccc2CN1; Cit = NC(=O)NCCC[C@H](N)C(=O)O; Chg = N[C@H](C(=O)O)C1CCCCC1; NHPhenethyl = c1ccc(CCN*)cc1; Tle = CC(C)(C)[C@H](N)C(=O)O; Pip = O=C(O)[C@@H]1CCCCN1; Morpholide = C1CN(*)CCO1; βAla = NCCC(=O)O; Sar = CNCC(=O)O

What follows are compounds tested against T1, MHC DR2 (DRB1*1501/DRA*0101) (Homo sapiens, UniProt P01903+P01911) (assay: HLA II Binding Assay (competition with biotinylated reference peptide)). Conditions: purified HLA-DR, biotinylated reference compound for DRB1*1501, 37° C. 24 h to 72 h; read-out: Inhibition of peptide binding IC50 (against MHC DR2 (DRB1*1501/DRA*0101)).
T1 construct: endogenous in cells; host or cells: EBV homozygous (B lymphoblastoid) cell lines
Experimental: EBV homozygous cell lines are used as sources of human HLA class II molecules. […] The supernatant from lysed cells after centrifugation (100,000 g for 1 h) is applied to Sepharose 4B and protein A-Sepharose 4B columns and then to the specific antibody column. […] Fractions are immediately neutralized to pH 7 with 2 mM Tris-HCl (pH 6.8) and extensively dialyzed against 1 mM n-dodecyl β-D-maltoside, 150 mM NaCl, 10 mM phosphate (pH 7) buffer.
Samples (100 μl per well) are incubated in 96-wells polypropylene plates at 37° C. for 24 h to 72 h. After neutralization with 50 μl of 450 mM Tris HCl pH 7.5, 0.003% thimerosal, 0.3% BSA, 1 mM n-dodecyl β-D-maltoside buffer, samples are applied to 96-well maxisorp ELISA plates previously coated with 10 μg/ml L243 Mab and saturated with 100 mM Tris HCl pH=7.5, 0.3% BSA, and 0.003% thimerosal buffer. Samples are allowed to bind to the antibody-coated plates for 2 h at room temperature. Bound biotinylated compound is detected by incubating streptavidin-alkaline phosphatase conjugate, and after washings, by the addition of 4-methylumbelliferyl phosphate substrate. […] Maximal binding is determined by incubating the biotinylated peptide with the MHC class II molecule in the absence of competitor. Binding specificity is assessed by adding an excess of non-biotinylated peptide.

Compound	IC50
CC(=O)N[C@H](C(=O)N[C@@H](CCCNC(=N)N)C(=O)N1Cc2ccccc2C[C@H]1C(=O)N[C@@H](Cc1ccccc1)C(=O)N1CCCC[C@H]1C(=O)O)C1CCCC1 [Ac(Cpg)R(Tic)F(homo Pro)COOH] (Ac-[Gly(cPent)]R[Tic]F[Pip]-OH)	10 to 100 nM
CC(=O)N[C@H](C(=O)N[C@H](C(=O)N[C@@H](CCCNC(=N)N)C(=O)N1Cc2ccccc2C[C@H]1C(=O)N[C@@H](Cc1ccccc1)C(=O)O)C1CCCCC1)C(C)C [AcV(Chg)R(Tic)F-COOH] (Ac-V[Chg]R[Tic]F-OH)	10 to 100 nM
CC(=O)N[C@H](C(=O)N[C@H](C(=O)N[C@@H](CCCNC(=N)N)C(=O)N1Cc2ccccc2C[C@H]1C(=O)NCCc1ccccc1)C1CCCCC1)C(C)C [AcV(Chg)R(Tic)(phenethylamide)] (Ac-V[Chg]R[Tic]-NHPhenethyl)	100 to 1000 nM
CC(=O)N[C@H](C(=O)N[C@H](C(=O)N[C@@H](CCCNC(=N)N)C(=O)N1Cc2ccccc2C[C@H]1C(=O)N[C@@H](Cc1ccccc1)C(=O)N1CCOCC1)C1CCCCC1)C(C)C [AcV(Chg)R(Tic)F-CO(morpholine)] (Ac-V[Chg]R[Tic]F-Morpholide)	10 to 100 nM
CC(C)[C@H](NC(=O)CN)C(=O)N[C@H](C(=O)N[C@@H](CCCNC(=N)N)C(=O)N1Cc2ccccc2C[C@H]1C(=O)N[C@@H](Cc1ccccc1)C(N)=O)C1CCCCC1 [(NH2-Gly)V(Chg)R(Tic)F] (H-GV[Chg]R[Tic]F-NH2)	1 to 10 nM
CO[C@H](C)[C@H](NC(C)=O)C(=O)N[C@H](C(=O)N[C@@H](CCCNC(=N)N)C(=O)N1Cc2ccccc2C[C@H]1C(=O)N[C@@H](Cc1ccccc1)C(N)=O)C1CCCCC1 [Ac(T(OMe))(Chg)R(Tic)F] (Ac-T(Me)[Chg]R[Tic]F-NH2)	1 to 10 nM
(NH2-Beta Ala)V(Chg)(pyrimidinyl)(Tic)F	10 to 100 nM
CC(=O)N[C@H](C(=O)N[C@@H](CCCNC(=N)N)C(=O)N1Cc2ccccc2C[C@H]1C(=O)NC(Cc1cccc2[nH]ccc12)C(N)=O)C1CCCCC1 (some centres unmarked) [Ac(Chg)R(Tic)-(4′-Indolyl Ala)]	10 to 100 nM
CC(=O)N[C@H](C(=O)N[C@H](C(=O)N[C@@H](CCCNC(=N)N)C(=O)N1Cc2ccccc2C[C@H]1C(=O)N[C@@H](Cc1cccc2[nH]cnc12)C(N)=O)C1CCCCC1)C(C)C [AcV(Chg)R(Tic)(4-benzimidazole)] (Ac-V[Chg]R[Tic][X2]-NH2)	10 to 100 nM
CC(=O)N[C@H](C(=O)N[C@H](C(=O)N[C@@H](CCCNC(=N)N)C(=O)N1Cc2ccccc2C[C@H]1C(=O)N[C@@H](Cc1ccccc1)C(N)=O)C1CCCCC1)C(C)(C)C [Ac(t-BuG)(Chg)R(Tic)F] (Ac-[Tle][Chg]R[Tic]F-NH2)	1 to 10 nM
CC(C)[C@H](NC(=O)CCN)C(=O)N[C@H](C(=O)N[C@@H](CCCNC(N)=O)C(=O)N1Cc2ccccc2C[C@H]1C(=O)N[C@@H](Cc1ccccc1)C(N)=O)C1CCCCC1 [(NH2-Beta Ala)V(Chg)(Cit)(Tic)F] (H-[βAla]V[Chg][Cit][Tic]F-NH2)	1 to 10 nM
CC(=O)N[C@H](C(=O)N[C@@H](CCCNC(=N)N)C(=O)N1CCCC[C@H]1C(=O)N[C@@H](Cc1ccccc1)C(=O)N1CCCC[C@H]1C(N)=O)C1CCCCC1 [Ac(Chg)R(homo Pro)F(homo Pro)] (Ac-[Chg]R[Pip]F[Pip]-NH2)	100 to 1000 nM

Other lines, results leading:

IC50	Compound
1 to 10 nM	CC(=O)N[C@H](C(=O)N[C@H](C(=O)N[C@@H](CCCNC(N)=O)C(=O)N1Cc2ccccc2C[C@H]1C(=O)N[C@@H](Cc1ccccc1)C(N)=O)C1CCCCC1)C(C)C [AcV(Chg)(Cit)(Tic)F] (Ac-V[Chg][Cit][Tic]F-NH2)
1 to 10 nM	CC(C)[C@H](NC(=O)CN)C(=O)N[C@H](C(=O)N[C@@H](CCCNC(N)=O)C(=O)N1Cc2ccccc2C[C@H]1C(=O)N[C@@H](Cc1ccccc1)C(N)=O)C1CCCCC1 [(NH2-Gly)V(Chg)(Cit)(Tic)F] (H-GV[Chg][Cit][Tic]F-NH2)
1 to 10 nM	CC(=O)N[C@H](C(=O)N[C@H](C(=O)N[C@@H](CCCNC(=N)N)C(=O)N1Cc2ccccc2C[C@H]1C(=O)N[C@@H](Cc1cccc2[nH]ncc12)C(N)=O)C1CCCCC1)C(C)C [AcV(Chg)R(Tic)(4-Indazole)] (Ac-V[Chg]R[Tic][X7]-NH2)
1 to 10 nM	CNCC(=O)N[C@H](C(=O)N[C@H](C(=O)N[C@@H](CCCNC(N)=O)C(=O)N1Cc2ccccc2C[C@H]1C(=O)N[C@@H](Cc1ccccc1)C(N)=O)C1CCCCC1)C(C)C [(NH2-Sar)V(Chg)(Cit)(Tic)F] (H-[Sar]V[Chg][Cit][Tic]F-NH2)
1 to 10 nM	CC(=O)N[C@H](C(=O)N[C@H](C(=O)N[C@@H](CCCNC(=N)N)C(=O)N1Cc2ccccc2C[C@H]1C(=O)N[C@@H](Cc1ccccc1)C(N)=O)C1CCCC1)C(C)C [AcV(Cpg)R(Tic)F] (Ac-V[Gly(cPent)]R[Tic]F-NH2)
